Assay results from patent publication US20100166846A1 (priority 2008, published 2010).
Like-named read-outs stand apart in the source and are kept apart here.

Columns and labels:
[1] = rat liver
Text: The tissue from the control animals (water) served as the 100% of the toxin remaining in the tissue. The animals receiving: • a.

[2] = humans, reference (7); cited from earlier work

N[C@@H](CCC(=O)N[C@@H](CS)C(=O)NCC(=O)O)C(=O)O [Plain glutathione, glutathione]
removal of toxin ([1]; CO-60, intravenous administration): 70% | removal of toxin ([1]; CO-60, oral administration): 10% | absorption after oral ingestion [2]: not absorbed

COc1ccccc1OCC(O)COC(N)=O (centres unmarked) [methocarbolmol]
tolerability in the animal (canine with myoclonus, initial symptom management): neither of which was tolerated

CN1C(=O)CN=C(c2ccccc2)c2cc(Cl)ccc21 [valium]
tolerability in the animal (dog, in vivo): neither of which was tolerated
